Data as given in patent US20190015551A1, “CONSTRUCT FOR PREVENTING IMMUNOLOGICAL REJECTION GENERATED WHEN USED IN TRANSPLANTS, AND METHOD FOR USING COLLAGEN IN A GEL STATE, IN THE FORM OF DRY LYOPHILISED SPONGY MOULDINGS AND 3D MATRICES” (ADG I+D SPA, priority 2015, published 2019).

Test system: bacterial colonies in pig tissue
Test: Microbiological control of pig tissue treated with disinfectants (CFU/plate)
Assay type: cell-based
Text: FIG. 3. It is shown the microbiological control of tissue for obtaining the collagen product, by means of the methodology described in the present application. It corresponds to CFU/plate in pig tissue treated with povidone-iodine or peracetic acid. […] Abbreviations: PY—povidone-iodine, PA—Peracetic Acid, CFU—colony forming units, CC—work bell control.
FIG. 4. It is shown results of microbiological control. The photographs of the culture plates show the initial growth of bacterial colonies at the beginning (time 0), and the decrease of CFU at 5 minutes, 30 minutes, 1 hour and 3 hours of exposure to the disinfectant; in the top panel povidone-iodine (PY) and in the lower panel peracetic acid (PA).
• i) Sterilization and freezing of the tissue: Pig's head cheeks skin from 175 to 190 days of age were used. Which was immersed for 3.5 hours in a commercial solution of povidone-iodine 10% (Brand: Centrovet) and brushed on both sides every 30 minutes, in a sterile environment, and rinsed with ultra-pure quality water. […] The disinfected tissue is bagged and sealed to freeze at −80° C. (±2.0° C.) in ultra freezer (Brand: Thermoline).

CC(=O)OO [PA, peracetic acid]
formation of bacterial colonies on culture plates (3 hours of exposure to the disinfectant): the presence of a colony still persists
UCF/plate in pig tissue treated with PY or PA (exposition time 0 min): 132 UCF/plate
UCF/plate in pig tissue treated with PY or PA (exposition time 5 min): 2 UCF/plate
UCF/plate in pig tissue treated with PY or PA (exposition time 30 min): 3 UCF/plate
UCF/plate in pig tissue treated with PY or PA (exposition time 1 hour): 7 UCF/plate
UCF/plate in pig tissue treated with PY or PA (exposition time 3 hours): 1 UCF/plate
